Two compounds from paper PMC2994747, “Molecular Characterization of c-Abl/c-Src Kinase Inhibitors Targeted against Murine Tumour Progenitor Cells that Express Stem Cell Markers” (PLoS ONE, 2010) can be followed below.

Broadly, the IC50 is the concentration at which inhibition is half-maximal.

One data set relates to GammaA3. Briefly: Caspase-Glo 3/7 activity assay. Format: cell-based, mouse. As to conditions: IC50 concentration.
The test system of data set [1] is murine and human cell lines. Briefly: Whole genome expression analysis, statements over several cell lines. Format: cell-based. On the procedure: The cells were harvested and RNA was isolated using RNeasy Mini Kit (Qiagen, Hilden, Germany) according to the instructions of the manufacturer. The isolated RNA (250 ng) was processed further using standard protocols as described recently with the exception of the 3′ IVT Express Kit (Affymetrix, High Wycombe, UK) that was utilized according to instructions. Quality control of cRNA was done with the Agilent 2100 Bioanalyzer (Agilent Tech according to manufacturer's protocols. Following fragmentation, cRNA of each sample was hybridized to Affymetrix GeneChip® Mouse Genome 430 2.0 or Human Genome U133 Plus 2.0 and scanned with an Affymetrix 3000 7G scanner.
The resultant data was normalized by Probe Logarithmic Intensity Error Estimation (PLIER) algorithm. Statistical analysis was carried out with the ArrayTrack software (National Center for Toxicological Research/FDA, Jefferson, AR, USA) using SAM algorithm.

The subject of a further data set is HepG2. Briefly: Western blot, semi-quantitative protein expression. Format: cell-based, human. The protocol:
For the Western Blot analysis, cells were rinsed and lysed as previously described. An amount of 25 µg protein was used for SDS-PAGE. Antibodies for c-Abl (sc-131), Actin (sc-1616), Cdc2-p34 (sc-8395), EPS15 (sc-1840), FAK (sc-558), c-Fos (sc-52), p38 (sc-7972), p53 (sc-6243) and STAT5 (sc-835x) were obtained from Santa Cruz (Santa Cruz Biotechnology, Heidelberg, Germany), while c-Src (2109) and phospho-Src Y416 (2101) were purchased from Cell Signaling (Cell Signaling Technology, Frankfurt a. M., Germany). The EGFR (06-847), phospho-EGFR Y992 (07-821) and phospho-EGFR Y1045 (04-284) stem from Upstate (Upstate, Schwalbach, Germany) and the hnRNP-K (A300-676A) from Bethyl Labs (Bethyl Laboratories, Montgomery, Texas, USA). Finally p73 (IMG-246) was supplied by Imgenex (Imgenex, Hamburg, Germany). Depending on the primary antibody the secondary antibodies were either horseradish peroxidase-conjugated anti-mouse (AP 160P), anti-rabbit (AP 132P) or anti-sheep (AP 147P) (Chemicon, Schwalbach, Germany).
Semi-quantitative analysis were carried out with Kodak 1D Image Analysis Software in reference to the vehicle treated control cells (see supplementary table S7).

Another data set relates to BetaD5. Briefly: Caspase-Glo 3/7 activity assay. The settings on record: IC50 concentration, 24 h, vs vehicle. Format: cell-based, mouse.
Data set [2] concerns murine and human tumour cell lines. Briefly: MTS cell viability assay, statements over the cell line panel. Format: cell-based. As to conditions: 96 h; cell line not stated at b77; read-out: IC50 (MTS) after 96 h of treatment. The protocol: Three human and eleven murine cancer cell lines were used. The human NSCLC cell line A549 (ACC 107) and the human colorectal carcinoma cell line CaCo2 (ACC 169) were obtained from Deutsche Sammlung von Mikroorganismen und Zellkulturen (DSMZ, Braunschweig, Germany). The human hepatocellular carcinoma cell line HepG2 (HB-8065) was obtained from American Type Culture Collection (Manassas, VA, USA). The 11 murine NSCLC cell lines were established as described recently. Cells were grown in monolayer cultures in DMEM containing 10% foetal calf serum, 4 mmol/l L-glutamine and 2% Penicillin/Streptomycin at 37°C in a humidified atmosphere of 95% air and 5% CO2.
Cell culture viability was monitored by CellTiter96® AQueous One Solution Cell Proliferation Assay (Promega GmbH, Mannheim, Germany). The cells were seeded in triplicates in 96-well microtitre plates and treated with the dual kinase inhibitors or vehicle (0.2% DMSO). After 24 h or 96 h of treatment the MTS tetrazolium reagent was added to the cells and incubated for 1 h. Absorbance at 490 nm was assayed with a Victor3 Wallac 1420 Multilabel counter (PerkinElmer, Waltham, MA, USA).
(In general: Formazan colour is commonly taken as a measure of viable cells.)

For the next data set, the system named is tumour cell lines. Briefly: Cell cycle analysis, statements over the cell line panel. Format: cell-based. The settings on record: IC50 concentration, 96 h. On the procedure:
CycleTEST™ PLUS DNA Reagent Kit (Becton Dickinson GmbH, Heidelberg, Germany) for cell cycle analysis was used, according to the instructions of the manufacturer. Briefly, the cells were harvested with trypsin, washed with PBS, and resuspended in CycleTEST Buffer. The cells were centrifuged and resuspended in solution A. After incubation for 10 min at room temperature, solution B was added and incubated. After adding solution C, the samples were incubated at 4°C protected from light. The samples were stored on ice and protected from light until analysis by FACScan flow cytometer (Becton Dickinson GmbH, Heidelberg, Germany).

The subject of a further data set is GammaD12. The settings on record: IC50 concentration, 24 h, vs vehicle. On the procedure: According to instructions, Caspase-Glo® 3/7 assay (Promega GmbH, Mannheim, Germany) was used for monitoring caspase activity. Briefly, the same volume Caspase-Glo reagent as culture medium was added and incubated 1 h at room temperature. Luminescence was read with a Victor3 Wallac 1420 Multilabel counter (PerkinElmer, Rodgau, Germany). Background absorbance (medium only) was subtracted and the data given as percent of vehicle controls.

Take `Clc1cccc(Nc2nc(SC3CCCC3)nc3c2cnn3CC(Cl)c2ccccc2)c1` (stereo not shown) [Si135]: the “Increase in caspase-3/7 activity” value in the data set with GammaA3 (24 h, vs vehicle) is on record as 10 fold. Also, the “Increase in caspase-3/7 activity” value in the data set on GammaA3 (96 h) is on record as “about 30 % of control”. Also, the “Genes regulated in common in A549 and CaCo2 (number)” value in data set [1] (Fig. 4A) was 13. Further, the “Significantly regulated genes (number)” value in data set [1] (IC50 concentration, 96 h, cell line not stated) is on record as “approx. 150”. Also, in the data set on HepG2, the Actin protein expression worked out at 68, the Cdc2-p34 protein expression worked out at 9, the “EGFR Y992-p protein expression” value is given as 8 and the “EGFR Y1045-p protein expression” value is listed as 28. For the same compound, in the data set with HepG2, the EGFR protein expression was determined as 261, the EPS15 protein expression was found to be 48, the FAK protein expression is on record as 130 and the STAT5 protein expression is reported as 61. In addition, in the data set with HepG2, the c-Abl protein expression turned out to be 34, the c-Fos protein expression is listed as 43, the “c-Src Y416-p protein expression” value is reported as 16 and the c-Src protein expression was 78. In the data set with HepG2, this compound came in with a hnRNP-K protein expression of 70, a p38 protein expression of 51 and a p53 protein expression of 19. Besides, the “Increase in caspase-3/7 activity” value with BetaD5 is 10 fold. Besides, the IC50 in data set [2] was 2700 nM.
Take `Fc1ccccc1CNc1ncnc2c1cnn2CC(Cl)c1ccc(Br)cc1` (stereo not shown) [Si162]: the “Cell cycle arrest (phase, in words)” value in the data set on tumour cell lines is “arrest in G2/M”. Besides, the “Commonly regulated genes in both murine cell lines (number)” value in data set [1] (A2C12 and GammaA3, Fig. 4D) turned out to be 259. Also, the “Genes regulated in common amongst all three human cell lines (number)” value in data set [1] (A549, CaCo2, HepG2, Fig. 4B) is “two”. In the data set on HepG2, the Actin protein expression is given as 77, the Cdc2-p34 protein expression was determined as 12, the “EGFR Y992-p protein expression” value amounted to 20 and the “EGFR Y1045-p protein expression” value is listed as 60. In the data set with HepG2, this compound had an EGFR protein expression of 535, an EPS15 protein expression of 56, an FAK protein expression of 96 and an STAT5 protein expression of 35. Moreover, in the data set on HepG2, the c-Abl protein expression is on record as 46, the c-Fos protein expression is 58, the “c-Src Y416-p protein expression” value was found to be 82 and the c-Src protein expression is 86. In the data set with HepG2, the hnRNP-K protein expression stood at 59, the p38 protein expression is reported as 48 and the p53 protein expression was 73. For the same compound, the “Increase in caspase-3/7 activity” value with GammaD12 is recorded as “up to 3 fold”.
